Experimental data published in patent publication US7414070B2, “Indol-7-YL sulfonamide derivatives, their preparation and their use in pharmaceutical compositions” (Laboratorios del Dr. ESTEVE S.A., priority 2003, dated 2008).
Counter-ions that a name gives are not always drawn.

## CN(C)CCn1ccc2cccc(NS(=O)(=O)c3c(Cl)nc4sccn34)c21 [Example 4, N-[1-(2-dimethylaminoethyl)-1H-indole-7-yl]-6-chloroimidazo[2,1-b]thiazole-5-sulfonamide]
  melting point: 73 to 76 °C

## CN(C)CCn1ccc2cccc(NS(=O)(=O)c3ccc(-c4ccccc4)cc3)c21 [Example 3, N-[1-(2-dimethylaminoethyl)-1H-indole-7-yl]-4 phenylbenzenesulfonamide]
  melting point: 137 to 140 °C

## O=S(=O)(CCc1cccc2ccccc12)Nc1cccc2ccn(CCN3CCCC3)c12 [Example 8, 2-(naphth-1-yl)-N-(1-(2-(pyrrolidin-1-yl)ethyl)-1H-indol-7-yl)ethansulfonamide]
  melting point: 46 to 49 °C

## Cc1c(S(=O)(=O)Nc2cccc3ccn(CCN(C)C)c23)sc2ccc(Cl)cc12 [Example 2, N-[1-(2-dimethylaminoethyl)-1H-indole-7-yl]-5-chloro-3-methyl-benzo[b]thiophene-2-sulfonamide]
  melting point: 57 to 65 °C

## O=S(=O)(Nc1cccc2ccn(CCN3CCCC3)c12)c1cccc2ccccc12 [Example 6, N-(1-(2-(pyrrolidin-1-yl)ethyl)-1H-indol-7-yl)naphthalene-1-sulfonamide]
  melting point: 196 to 199 °C

## O=S(=O)(Nc1cccc2ccn(CCN3CCCC3)c12)c1c(Cl)nc2sccn12 (as salt: TFA) [Example 7, 6-chloro-N-(1-(2-(pyrrolidin-1-yl)ethyl)-1H-indol-7-yl)imidazo[2,1-b]thiazole-5-sulfonamide]
  melting point: 92 to 95 °C
